Measurements published in patent publication US9815796B2 (Merck Sharp & Dohme Corp., priority 2013, dated 2017).

Biological target: Rhesus PDE2A3 (Macaca mulatta, UniProt B3VTJ2)
Experiment: PDE2 fluorescence polarization (IMAP FP) inhibition assay, rhesus enzyme
Assay type: biochemical, rhesus macaque
Conditions: Rhesus PDE2, Lab A; read-out: Rhesus PDE2 Ki (nM) - Lab A
Protocol: The activity of the compounds in accordance with the present invention as PDE2 inhibitors may be readily determined using a fluorescence polarization (FP) methodology (Huang, W., et al., J. Biomol Screen, 2002, 7: 215).
In a typical experiment the PDE2 inhibitory activity of the compounds of the present invention was determined in accordance with the following experimental method. Rhesus PDE2A3 was amplified from rhesus macaque brain cDNA (Biochain Institute, Hayward, Calif.) using primers based on human PDE2A sequence (accession NM_002599.3) where the forward primer containing a Kozak consensus was 5′-[…]-3′ and the reverse primer was 5′-[…]-3′. Amplification with Easy-A High-Fidelity PCR cloning enzyme (Stratagene, La Jolla, Calif.) was 95° C. for 2 minutes followed by thirty three cycles of 95° C. for 40 seconds, 52° C. for 30 seconds, and 72° C. for 2 minutes 48 seconds. Final extension was 72° C. for 7 minutes. The PCR product was TA cloned into pcDNA3.3-TOPO (Invitrogen, Carlsbad, Calif.) according to standard protocol. A consensus sequence was developed from multiple clones and then deposited into GenBank (EU812167). AD293 cells (Stratagene, La Jolla, Calif.) with 70-80% confluency were transiently transfected with rhesus PDE2A3/pcDNA3.3-TOPO using Lipofectamine 2000 according to manufacturer specifications (Invitrogen, Carlsbad, Calif.). Cells were harvested 48 hours post-transfection and lysed by sonication (setting 3, 10×5 sec pulses) in a buffer containing 20 mM HEPES pH 7.4, 1 mM EDTA and Complete Protease Inhibitor Cocktail Tablets (Roche, Indianapolis, Ind.). Lysate was collected by centrifugation at 75,000×g for 20 minutes at 4° C. and supernatant utilized for evaluation of PDE2 activity. The fluorescence polarization assay for cyclic nucleotide phosphodiesterases was performed using an IMAP® FP kit supplied by Molecular Devices, Sunnyvale, Calif. (product # R8139). […] Assays were performed at room temperature in 384-well microtiter plates with an incubation volume of 20.2 μL. Solutions of test compounds were prepared in DMSO and serially diluted with DMSO to yield 8 μL of each of 10 solutions differing by 3-fold in concentration, at 32 serial dilutions per plate. […] 0% of inhibition is determined by using DMSO (1% final concentrations).
A Labcyte Echo 555 (Labcyte, Sunnyvale, Calif.) is used to dispense 200 nL from each well of the titration plate to the 384 well assay plate. Ten microliters of a solution of enzyme (1/2000 final dilution from aliquots; sufficient to produce 20% substrate conversion) was added to the assay plate. Next 10 uL of a separate solution of the substrate FAM-labeled cAMP (50 nM final concentration product # R7506 from Molecular Devices) and the activator cGMP (1 uM final concentration), prepared in the assay buffer (10 mM Tris HCl, pH 7.2, 10 mM MgCl2, 0.05% NaN3 0.01% Tween-20, and 1 mM DTT) was added to the assay plate and shaken to mix. The reaction is allowed to proceed at room temperature for 60 minutes. A binding solution is then made from the kit components, comprised of 80% Solution A, 20% Solution B and binding reagent at a volume of 1/600 the total binding solution. The enzymatic reaction is stopped by addition of 60 μL of the binding solution to each well of the assay plates and the plates are sealed and shaken for 30 seconds. The plate was incubated at room temperature for at least one hour prior to determining the fluorescence polarization (FP). The parallel and perpendicular fluorescence of each well of the plate was measured using a Tecan Genios Pro plate reader (Tecan, Switzerland) or Perkin Elmer EnVision™ plate reader (Waltham, Mass.). Fluorescence polarization (mP) was calculated from the parallel (S) and perpendicular (P) fluorescence of each sample well and the analogous values for the median control well, containing only substrate (So and Po), using the following equation: Polarization (mP)=1000*(S/So−P/Po)/(S/So+P/Po).

Sequence of Rhesus PDE2A3 (B3VTJ2 1-941): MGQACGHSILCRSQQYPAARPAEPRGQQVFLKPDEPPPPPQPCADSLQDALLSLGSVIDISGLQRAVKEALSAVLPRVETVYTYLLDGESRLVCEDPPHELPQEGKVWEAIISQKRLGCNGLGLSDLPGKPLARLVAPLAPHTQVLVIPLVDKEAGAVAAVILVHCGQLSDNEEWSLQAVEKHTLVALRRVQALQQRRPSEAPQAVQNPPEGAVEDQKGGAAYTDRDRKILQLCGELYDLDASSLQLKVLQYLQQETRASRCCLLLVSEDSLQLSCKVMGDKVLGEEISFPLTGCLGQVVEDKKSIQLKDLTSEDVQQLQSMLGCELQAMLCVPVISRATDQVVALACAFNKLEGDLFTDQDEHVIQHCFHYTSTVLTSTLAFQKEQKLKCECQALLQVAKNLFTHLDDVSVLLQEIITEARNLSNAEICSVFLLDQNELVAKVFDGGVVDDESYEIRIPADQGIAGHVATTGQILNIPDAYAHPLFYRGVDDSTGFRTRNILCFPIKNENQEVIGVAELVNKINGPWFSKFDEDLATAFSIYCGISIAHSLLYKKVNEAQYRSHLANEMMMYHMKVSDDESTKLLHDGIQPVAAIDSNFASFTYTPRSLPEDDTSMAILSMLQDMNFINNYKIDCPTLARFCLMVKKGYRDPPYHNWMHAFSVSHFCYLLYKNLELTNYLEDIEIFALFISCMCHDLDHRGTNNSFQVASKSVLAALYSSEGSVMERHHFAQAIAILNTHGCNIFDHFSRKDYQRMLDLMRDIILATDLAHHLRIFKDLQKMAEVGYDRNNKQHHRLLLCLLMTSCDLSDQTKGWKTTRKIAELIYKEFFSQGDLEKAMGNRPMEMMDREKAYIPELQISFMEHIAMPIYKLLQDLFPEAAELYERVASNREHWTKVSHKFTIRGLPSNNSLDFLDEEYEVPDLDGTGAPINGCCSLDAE

| Structure (SMILES) | Ki [nM] |
| --- | --- |
| COc1ccc(Cc2nc(C(=O)NC3(C)CC3)cc(=O)[nH]2)cc1OC [Example 5, 2-(3,4-dimethoxybenzyl)-N-(1-methylcyclopropyl)-6-oxo-1,6-dihydropyrimidine-4-carboxamide] | 1150 |
| C[C@@H](NC(=O)c1cc(=O)[nH]c(C(C)(C)n2cccn2)n1)c1ccc(C(F)(F)F)cc1 [Example 7, 2-[1-methyl-1-(1H-pyrazol-1-yl)ethyl]-6-oxo-N-{(1R)-1-[4-(trifluoromethyl)phenyl]ethyl}-1,6-dihydropyrimidine-4-carboxamide] | 2780 |
| CCC(NC(=O)c1cc(=O)[nH]c(C)n1)c1ccc(C(C)(C)C)cc1 (centres unmarked) [Example 12, N-[1-(4-tert-butylphenyl)propyl]-2-methyl-6-oxo-1,6-dihydropyrimidine-4-carboxamide] | 102 |
| COc1cc(CN(C)C(=O)c2cc(=O)[nH]c(C)n2)cc(OC)c1OC [Example 14, N,2-dimethyl-6-oxo-N-(3,4,5-trimethoxybenzyl)-1,6-dihydropyrimidine-4-carboxamide] | 1860 |
| Cc1nc(C(=O)NCc2ccc(C(F)(F)F)cc2C)cc(=O)[nH]1 [Example 23, 2-methyl-N-[2-methyl-4-(trifluoromethyl)benzyl]-6-oxo-1,6-dihydropyrimidine-4-carboxamide] | 3920 |
| Cc1nc(C(=O)NCc2ccc(C(F)(F)F)cc2Cl)cc(=O)[nH]1 [Example 24, N-[2-chloro-4-(trifluoromethyl)benzyl]-2-methyl-6-oxo-1,6-dihydropyrimidine-4-carboxamide] | 3630 |
| COc1cc(C(C)NC(=O)c2cc(=O)[nH]c(C)n2)ccc1C(F)(F)F (centres unmarked) [Example 27, N-{1-[3-methoxy-4-(trifluoromethyl)phenyl]ethyl}-2-methyl-6-oxo-1,6-dihydropyrimidine-4-carboxamide] | 1160 |
| Cc1nc(C(=O)N[C@H](C)c2ccc(C(F)(F)F)c3ccccc23)cc(=O)[nH]1 [Example 28, 2-methyl-6-oxo-N-{(1R)-1-[4-(trifluoromethyl)naphthalen-1-yl]ethyl}-1,6-dihydropyrimidine-4-carboxamide] | 3490 |
| Cc1nc(C(=O)NC(c2ccccc2)c2ccc(C(F)(F)F)cc2)cc(=O)[nH]1 (centres unmarked) [Example 34, 2-methyl-6-oxo-N-{phenyl[4-(trifluoromethyl)phenyl]methyl}-1,6-dihydropyrimidine-4-carboxamide] | 1420 |
| Cc1nc(C(=O)N[C@@H](C)c2ccc(OC(F)F)cc2)cc(=O)[nH]1 [Example 56, (S)-N-(1-(4-(difluoromethoxy)phenyl)ethyl)-2-methyl-6-oxo-1,6-dihydropyrimidine-4-carboxamide] | 4590 |
| Cc1nc(C(=O)N[C@@H](c2ccc(C(F)(F)F)cc2)[C@H](C)O)cc(=O)[nH]1 [Example 64, N-((1S,2S)-2-hydroxy-1-(4-(trifluoromethyl)phenyl)propyl)-2-methyl-6-oxo-1,6-dihydropyrimidine-4-carboxamide] | ~39300 |
| CC(C)(NC(=O)c1cc(=O)[nH]c(-c2ncccn2)n1)c1ccc(OC(F)(F)F)c(F)c1 [Example 71, N-{1-[3-fluoro-4-(trifluoromethoxy)phenyl]-1-methylethyl}-6-oxo-1,6-dihydro-2,2′-bipyrimidine-4-carboxamide] | 1570 |
| O=C(NC1(c2ccc(C(F)(F)F)cc2)CCCC1)c1cc(=O)[nH]c(-c2ncccn2)n1 [Example 72, 6-oxo-N-{1-[4-(trifluoromethyl)phenyl]cyclopentyl}-1,6-dihydro-2,2′-bipyrimidine-4-carboxamide] | 333 |
| O=C(NC(c1ccccc1)c1ccc(C(F)(F)F)cc1)c1cc(=O)[nH]c(-c2ncccn2)n1 (centres unmarked) [Example 78, 6-oxo-N-{phenyl[4-(trifluoromethyl)phenyl]methyl}-1,6-dihydro-2,2′-bipyrimidine-4-carboxamide] | 1080 |
| C[C@@H](NC(=O)c1cc(=O)[nH]c(-c2ncccn2)n1)c1cccc(C(F)(F)F)c1 [Example 80, 6-oxo-N-{(1R)-1-[3-(trifluoromethyl)phenyl]ethyl}-1,6-dihydro-2,2′-bipyrimidine-4-carboxamide] | 845 |
| COc1ccc(C(NC(=O)c2cc(=O)[nH]c(-c3ncccn3)n2)c2ccc(C(F)(F)F)cc2)cc1 (centres unmarked) [Example 87, N-{(4-methoxyphenyl)[4-(trifluoromethyl)phenyl]methyl}-6-oxo-1,6-dihydro-2,2′-bipyrimidine-4-carboxamide] | 1920 |

More lines, now with the values ahead:

| Ki [nM] | Structure (SMILES) |
| --- | --- |
| 2360 | COc1ccc([C@@H](C)NC(=O)c2cc(=O)[nH]c(-c3ncccn3)n2)c(OC)c1 [Example 88, N-[(1R)-1-(2,4-dimethoxyphenyl)ethyl]-6-oxo-1,6-dihydro-2,2′-bipyrimidine-4-carboxamide] |
| 732 | Cc1cc(C(F)(F)F)ccc1C(C)NC(=O)c1cc(=O)[nH]c(-c2ncccn2)n1 (centres unmarked) [Example 90, N-{1-[2-methyl-4-(trifluoromethyl)phenyl]ethyl}-6-oxo-1,6-dihydro-2,2′-bipyrimidine-4-carboxamide] |
| 20 | O=C(N[C@@H](c1ccc(C(F)(F)F)cc1)C1CC1)c1cc(=O)[nH]c(-c2ncccn2)n1 [Example 94, N-{(R)-cyclopropyl[4-(trifluoromethyl)phenyl]methyl}-6-oxo-1,6-dihydro-2,2′-bipyrimidine-4-carboxamide] |
| 1280 | CC(NC(=O)c1cc(=O)[nH]c(-c2ncccn2)n1)c1ccc(C(F)(F)F)cc1Cl (centres unmarked) [Example 96, N-{1-[2-chloro-4-(trifluoromethyl)phenyl]ethyl}-6-oxo-1,6-dihydro-2,2′-bipyrimidine-4-carboxamide] |
| 1.5 | CC(C)[C@@H](NC(=O)c1cc(=O)[nH]c(-c2ncccn2)n1)c1ccc(SC(F)(F)F)cc1 [Example 97, N-[(1R)-2-methyl-1-{4-[(trifluoromethyl)sulfanyl]phenyl}propyl]-6-oxo-1,6-dihydro-2,2′-bipyrimidine-4-carboxamide] |
| 2.6 | CC[C@@H](NC(=O)c1cc(=O)[nH]c(-c2ncccn2)n1)c1ccc(SC(F)(F)F)cc1 [Example 100, 6-oxo-N-[(1R)-1-{4-[(trifluoromethyl)sulfanyl]phenyl]propyl]-1,6-dihydro-2,2′-bipyrimidine-4-carboxamide] |
| 5120 | C[C@@H](NC(=O)c1cc(=O)[nH]c(-c2ncccn2)n1)c1ccc(C(F)(F)F)c2ccccc12 [Example 102, 6-oxo-N-{(1R)-1-[4-(trifluoromethyl)naphthalen-1-yl]ethyl}-1,6-dihydro-2,2′-bipyrimidine-4-carboxamide] |
| 524 | COc1cc(C(C)NC(=O)c2cc(=O)[nH]c(-c3ncccn3)n2)ccc1C(F)(F)F (centres unmarked) [Example 104, N-{1-[3-methoxy-4-(trifluoromethyl)phenyl]ethyl}-6-oxo-1,6-dihydro-2,2′-bipyrimidine-4-carboxamide] |

Same assay, conditions: Rhesus PDE2, Lab B; read-out: Rhesus PDE2 Ki (nM) - Lab B

| Ki [nM] | Structure (SMILES) |
| --- | --- |
| > 2970 | Cc1nc(C(=O)NC(c2ccc(C3(C)CC3)c(F)c2)C(C)(C)C)cc(=O)[nH]1 (single isomer, unassigned) [Example 710, (S)- or (R)-N-(1-(3-fluoro-4-(1-methylcyclopropyl)phenyl)-2,2-dimethylpropyl)-2-methyl-6-oxo-1,6-dihydropyrimidine-4-carboxamide] |
| 441 | Cc1nc(C(=O)NC(c2ccc(SC(F)(F)F)cc2)C(C)C)cc(=O)[nH]1 (stereo in doubt) [Example 615, 2-methyl-N-[(1S)-2-methyl-1-{4-[(trifluoromethyl)sulfanyl]phenyl}propyl]-6-oxo-1,6-dihydropyrimidine-4-carboxamide] |
